In paper PMC7026080, “Phenotypic high-throughput screening platform identifies novel chemotypes for necroptosis inhibition” (Cell Death Discovery, 2020):

Columns and labels:
L929 cells [1] = assay: Long-term necroptosis inhibition in L929 cells + mTNF-α, 24 h, LDH release; assay type: cell-based, murine; conditions: Mus musculus, 10 ng/mL mTNF-α, screening step 7, read-out: EC50 L929 + TNF-α (in vitro)
Method: (§1) The ability of compounds to interfere with specific steps of the necroptosis pathway, as well as inherent cytotoxicity and long-term necroptosis inhibitory effects were evaluated using in vitro necroptosis models (Fig. S1). Firstly, the 110 compounds were tested for their ability to modulate TNF-α-induced MLKL phosphorylation, a key necroptotic effector downstream of RIPK3[13]. […] Membrane integrity was evaluated by both AK and LDH release to exclude potential false positives.
(§2) Whole cell extracts were analysed by immunoblotting. […] Data represent mean values ± SEM of three independent experiments normalized to untreated control. Cell viability was assessed using a colorimetric-based readout for LDH release.
(§3) Whole cell extracts were analysed by immunoblotting. Data shown are representative blots and quantification of p-MLKL/MLKL ratio from one single experiment, in fold-change from control. […] Data represent mean values ± SEM of three independent experiments normalized to untreated control. Cell viability was assessed using a colorimetric-based readout for LDH release. c In vitro screening results for seven selected compounds at different stages of the HTS cascade. TEXT PRINTED IN THE PICTURE: (C) Nec-1: EC50 [μM] L929 + TNF-α (in vitro): 1.25 (Screening Step: 1; Time Point: 8 h); EC50 [μM] L929 + TNF-α (in vitro): 1.13 (Screening Step: 7; Time Point: 24 h); EC50 [μM] […]

L929 cells [2] = assay: Cytotoxicity in L929 cells without TNF-α, 24 h, LDH release; assay type: cell-based, murine; conditions: Mus musculus, absence of TNF-α, toxicity, screening step 7, read-out: IC50 L929 (in vitro)
Method: as §1, §2, §3

CN1C(=O)C(Cc2c[nH]c3ccccc23)NC1=S (stereo not shown) [Nec-1, necrostatin-1]
EC50 (L929 cells [1]): 1.13 µM
IC50 (L929 cells [2]): > 100 µM

O=C(c1cnn(Cc2ccccc2)c1)N1CCOc2ccccc2C1 [SN-6109]
EC50 (L929 cells [1]): 11.5 µM
IC50 (L929 cells [2]): > 100 µM
